The values that follow come from PubChem BioAssay (NCI).

Among the test systems are SW-620 colon; SNB-19 CNS; SN12C renal; UO-31 renal; HT29 colon; DU-145 prostate; U251 CNS; KM12 colon; OVCAR-8 ovarian; EKVX NSCLC; NCI-H522 lung.
Test in all cases: NCI anticancer screen, dose series, 48 h

The structures appear in SMILES notation.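 Dose response: 5 concentrations. Exposure: 48 h. Format: 96-well plates. Endpoint: linear interpolation; highest concentration if not reached. TGI marks complete inhibition of growth.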 Where only a bound is given, the exact number is not on record here.

`O=C(O)c1nn(-c2ccccc2)nc1-c1nn(-c2ccccc2)nc1C(=O)O`: the TGI in the assay on SW-620 colon, in the assay on SNB-19 CNS, with SN12C renal, with UO-31 renal, with HT29 colon and in the assay with DU-145 prostate was more than 100 µM throughout. Also, the TGI in the assay with U251 CNS, in the assay on KM12 colon, with OVCAR-8 ovarian and with EKVX NSCLC was more than 100 µM in each case.

Consider `COc1ccc2[nH]c3c(c2c1)CC(=O)N1CCC[C@H](C1)CC31OCCCO1`, for which the TGI in the assay on SW-620 colon, with SNB-19 CNS, in the assay with SN12C renal, in the assay on UO-31 renal, with HT29 colon and with DU-145 prostate was more than 100 µM throughout. For the same compound, the TGI in the assay with U251 CNS, with KM12 colon, in the assay with OVCAR-8 ovarian and in the assay with EKVX NSCLC was more than 100 µM each time.

Take `C=CCOC(=O)Cn1ccc(=O)[nH]c1=O`: the TGI in the assay on SW-620 colon, in the assay on SNB-19 CNS, in the assay with SN12C renal, in the assay on UO-31 renal, in the assay with HT29 colon and in the assay with DU-145 prostate was more than 100 µM in each case. Besides, the TGI with U251 CNS, in the assay on KM12 colon, in the assay on OVCAR-8 ovarian and in the assay with EKVX NSCLC was more than 100 µM each time.

Take `C(=N\NC1=NCCN1)/c1ccc2ccccc2c1`: the TGI in the assay with SW-620 colon was 32.6 µM; in the assay with SN12C renal, 35.4 µM; with NCI-H522 lung, 29.6 µM; in the assay with UO-31 renal it was 19.9 µM; in the assay on HT29 colon, 30.4 µM; in the assay on DU-145 prostate, more than 100 µM. In addition, the TGI with U251 CNS came to 29.8 µM; in the assay with KM12 colon it was 28 µM; with OVCAR-8 ovarian it was 35 µM; with EKVX NSCLC, 50.8 µM.

On to `COc1ccc(N2C(=O)/C(=C/c3ccc(N(CCC#N)CCC#N)cc3)N=C2c2ccccc2)cc1`, for which the TGI with SW-620 colon, in the assay with SNB-19 CNS, with SN12C renal, in the assay with UO-31 renal, with HT29 colon and with DU-145 prostate was more than 100 µM each time. For the same compound, the TGI in the assay on U251 CNS, with KM12 colon, with OVCAR-8 ovarian and in the assay with EKVX NSCLC was more than 100 µM each time.

As for `CCN(CC)c1c(C)nnn1C1OC(COC(C)=O)C(OC(C)=O)C(OC(C)=O)C1OC(C)=O` (centres undefined), the TGI with SW-620 colon is 31.3 µM; in the assay with SNB-19 CNS it was more than 100 µM; in the assay with SN12C renal, more than 100 µM; with NCI-H522 lung, more than 100 µM; in the assay with UO-31 renal it was more than 100 µM; in the assay with HT29 colon, more than 100 µM. In addition, the TGI with U251 CNS, in the assay with KM12 colon, in the assay with OVCAR-8 ovarian and in the assay on EKVX NSCLC was more than 100 µM throughout.

As to `CCCCCCCCCCCCOC1C(COCCN2CCCCC2)OC2OC(C)(C)OC21` (centres undefined), the TGI in the assay on SW-620 colon was 3.23 µM; with SNB-19 CNS, 8.07 µM; in the assay on SN12C renal it was 4.72 µM; in the assay on NCI-H522 lung, 2.97 µM; in the assay with UO-31 renal it was 3.22 µM; in the assay on HT29 colon, 2.53 µM. Also, the TGI in the assay with DU-145 prostate came to 21.6 µM; with U251 CNS, 3.48 µM; with KM12 colon, 3.06 µM; in the assay with OVCAR-8 ovarian, 3.41 µM.

With `O=C1Nc2ccc(Br)cc2/C1=N/N1C(=O)C(=O)N(C2CCCCC2)C1=S`, the TGI in the assay with SW-620 colon came out at 14.8 µM; with SNB-19 CNS, 69.1 µM; with SN12C renal, 16 µM; with UO-31 renal it was 4.79 µM; in the assay with HT29 colon, 7.91 µM; in the assay on DU-145 prostate it was 23.1 µM. Further, the values for the TGI in the assay on U251 CNS, with KM12 colon and in the assay on EKVX NSCLC were 15.9 µM, 14.6 µM and 23.1 µM, respectively.

In the case of `O=C1CN(c2cccc(C(F)(F)F)c2)C(=O)CN1CCN1CC(=O)N(c2cccc(C(F)(F)F)c2)CC1=O`, the TGI in the assay on SW-620 colon, with SNB-19 CNS, with SN12C renal, in the assay with NCI-H522 lung, in the assay with UO-31 renal and in the assay on HT29 colon was more than 100 µM throughout. For the same compound, the TGI in the assay on U251 CNS, in the assay on KM12 colon, in the assay with OVCAR-8 ovarian and in the assay with EKVX NSCLC was more than 100 µM throughout.

In the case of `CC#COS(=O)(=O)c1ccc(C)cc1`, the TGI with SW-620 colon, with SNB-19 CNS, in the assay on SN12C renal, in the assay on NCI-H522 lung, in the assay on UO-31 renal and in the assay with HT29 colon was more than 100 µM each time. The TGI in the assay with U251 CNS, in the assay with KM12 colon, in the assay with OVCAR-8 ovarian and with EKVX NSCLC was more than 100 µM in each case.

For `CC(=O)Nc1ccc(/C=c2\sc3nnc(-c4cccnc4)n3c2=O)cc1`, the TGI in the assay with SW-620 colon came out at 34.2 µM; in the assay with SNB-19 CNS, 77.2 µM; with SN12C renal, 31 µM; with NCI-H522 lung, 33.2 µM; in the assay on UO-31 renal, 24.7 µM; in the assay with HT29 colon, 34.5 µM. Also, the TGI turned out to be 33.5 µM with U251 CNS, 31 µM in the assay on KM12 colon, 32.1 µM in the assay on OVCAR-8 ovarian and 55.2 µM with EKVX NSCLC.

As for `Cc1[nH]c2nccn2c(=O)c1CCO`, the TGI with SW-620 colon, in the assay with SNB-19 CNS, in the assay with SN12C renal, in the assay with UO-31 renal, with HT29 colon and in the assay on DU-145 prostate was more than 10 µM each time. Further, the TGI with U251 CNS, in the assay with KM12 colon, in the assay with OVCAR-8 ovarian and in the assay with EKVX NSCLC was more than 10 µM each time.

Consider `CCN(CC)CCC1CCCCN1CC(=O)N1c2cc(Cl)ccc2NC(=O)CC1C` (centres undefined), for which the TGI in the assay with SNB-19 CNS, with SN12C renal, in the assay with NCI-H522 lung, in the assay with UO-31 renal, in the assay with HT29 colon and in the assay on DU-145 prostate was more than 100 µM in each case. In addition, the TGI with U251 CNS, with KM12 colon, in the assay with OVCAR-8 ovarian and with EKVX NSCLC was more than 100 µM each time.

In the case of `Cn1cc2c3ccccc3nc-2c2ccccc21`, the TGI with SW-620 colon was 3.89 µM; with SNB-19 CNS it was 10.6 µM; with SN12C renal, 4.89 µM; in the assay with NCI-H522 lung, 3.18 µM; with UO-31 renal, 2.92 µM; with HT29 colon, 5.35 µM. The TGI in the assay on DU-145 prostate was 5.76 µM; in the assay with U251 CNS, 6.51 µM; in the assay with KM12 colon, 6.78 µM; with OVCAR-8 ovarian, 3.42 µM.
